In experiment [1] the target is T1, purified recombinant human GAC (GLS1) (Homo sapiens, UniProt O94925).
T1 sequence (O94925 55-598 isoform O94925-3 limits assumed): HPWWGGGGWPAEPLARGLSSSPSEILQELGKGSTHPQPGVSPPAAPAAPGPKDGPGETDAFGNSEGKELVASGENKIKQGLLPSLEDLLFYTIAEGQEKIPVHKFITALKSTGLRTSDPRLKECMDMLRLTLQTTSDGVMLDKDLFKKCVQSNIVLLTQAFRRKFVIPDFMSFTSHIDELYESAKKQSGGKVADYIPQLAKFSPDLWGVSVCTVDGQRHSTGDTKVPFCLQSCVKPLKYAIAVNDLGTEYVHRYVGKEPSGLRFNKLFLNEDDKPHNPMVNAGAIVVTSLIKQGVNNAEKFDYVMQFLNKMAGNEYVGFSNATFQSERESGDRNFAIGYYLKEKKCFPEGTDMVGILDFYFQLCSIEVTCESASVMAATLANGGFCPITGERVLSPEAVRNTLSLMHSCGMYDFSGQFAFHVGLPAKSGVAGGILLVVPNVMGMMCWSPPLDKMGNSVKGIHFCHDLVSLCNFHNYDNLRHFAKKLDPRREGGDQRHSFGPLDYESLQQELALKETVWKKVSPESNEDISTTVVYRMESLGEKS
Description: GLS1 Enzymatic Activity Assay (dual-coupled enzymatic assay). It is filed as biochemical. A digest of the protocol:
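In this coupled fluorometric format, phosphate-activated GAC (2 nM, 50 mM phosphate) is pre-exposed to compound for 10 min before 1 mM glutamine addition. Product is tracked as resorufin (530/590 nm) over time or at 20 min, and potency is derived by logistic fitting.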

For a further experiment, the system named is A549 cells. Description: Proliferation Assay (A549 cell viability, Cell Titer Fluor). In kind it is cell-based. Conditions: Homo sapiens, 72 hours. A digest of the protocol:
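A549 cells seeded at 1000 cells/well, left 24 h, then exposed to compound for 72 h at 37 °C, 5% CO2, final DMSO 0.5% (v/v). Viability read by Cell Titer Fluor fluorescence; EC50 from four-parameter logistic fit.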

As a reminder, the IC50 is the concentration that inhibits the measured activity by half. One may read the EC50 as the midpoint of the concentration-response curve. Read a high EC50 as a need for much substance.

Regarding `O=C(NCc1cc(OC(F)(F)F)ccc1F)c1cn(CCCCc2cc3cc(C4CN(C(=O)C5CC(F)(F)C5)C4)[nH]c3nn2)nn1` [Example 226, 1-(4-{6-[1-(3,3-difluorocyclobutanecarbonyl)azetidin-3-yl]-7H-pyrrolo[2,3-c]pyridazin-3-yl}butyl)-N-{[2-fluoro-5-(trifluoromethoxy)phenyl]methyl}-1H-1,2,3-triazole-4-carboxamide], the IC50 in experiment [1] was below 100 nM. The compound also gave an EC50 in the experiment on A549 cells of 100 to 500 nM.

Turning to `CC(C)(O)c1ccnc(CNC(=O)c2cn(CCCCc3cc4cc(-c5ccccc5F)[nH]c4nn3)nn2)c1` [Example 239, 1-{4-[6-(2-fluorophenyl)-7H-pyrrolo[2,3-c]pyridazin-3-yl]butyl}-N-{[4-(2-hydroxypropan-2-yl)pyridin-2-yl]methyl}-1H-1,2,3-triazole-4-carboxamide], the IC50 in experiment [1] is below 100 nM. The compound also showed an EC50 in the experiment with A549 cells of 100 to 500 nM.

Consider `O=C(NCc1cc(OC(F)(F)F)ccc1F)c1cn(CCCCc2cc3cc(C4CCN(C(=O)CC(F)(F)F)CC4)[nH]c3nn2)nn1` [Example 157, N-{[2-fluoro-5-(trifluoromethoxy)phenyl]methyl)-1-(4-{6-[1-(3,3,3-trifluoropropanoyl)piperidin-4-yl]-7H-pyrrolo[2,3-c]pyridazin-3-yl}butyl)-1H-1,2,3-triazole-4-carboxamide], for which the IC50 in experiment [1] is below 100 nM. The compound further displayed an EC50 with A549 cells of 100 to 500 nM.

In the case of `O=C(NCc1cncc(C(F)(F)F)c1)c1cn(CCCCc2cc3c(-c4ccoc4)c(C4CC4)[nH]c3nn2)nn1` [Example 189, 1-{4-[6-cyclopropyl-5-(furan-3-yl)-7H-pyrrolo[2,3-c]pyridazin-3-yl]butyl}-N-{[5-(trifluoromethyl)pyridin-3-yl]methyl}-1H-1,2,3-triazole-4-carboxamide], the IC50 in experiment [1] was below 100 nM. The same compound displayed an EC50 with A549 cells below 100 nM.

As to `CC(C)(O)c1ccnc(CNC(=O)c2cn(CCCCc3cc4cc(C5CC5)[nH]c4nn3)nn2)c1` [Example 17, 1-(4-(6-Cyclopropyl-7H-pyrrolo[2,3-c]pyridazin-3-yl)butyl)-N-((4-(2-hydroxypropan-2-yl)pyridin-2-yl)methyl)-1H-1,2,3-triazole-4-carboxamide 2,2,2-trifluoroacetate], the IC50 in experiment [1] was in the range of 100 to 500 nM. In the experiment on A549 cells, this compound showed an EC50 of 500 to 5000 nM.

Turning to `COCCNC(=O)c1nnc(CCCCc2cc3cc(Cc4ccccc4)[nH]c3nn2)s1` [Example 67, 5-(4-{6-benzyl-7H-pyrrolo[2,3-c]pyridazin-3-yl}butyl)-N-(2-methoxyethyl)-1,3,4-thiadiazole-2-carboxamide], in experiment [1], the IC50 was in the range of 100 to 500 nM. Moreover, in the experiment on A549 cells, the EC50 lay in the range of 100 to 500 nM.

For the compound `O=C(NCc1ccc(C(F)(F)F)cn1)c1cn(CCCCc2cc3cc(-c4ccccc4F)[nH]c3nn2)nn1` [Example 193, 1-(4-[6-(2-fluorophenyl)-7H-pyrrolo[2,3-c]pyridazin-3-yl]butyl}-N-{[5-(trifluoromethyl)pyridin-2-yl]methyl}-1H-1,2,3-triazole-4-carboxamide], the IC50 in experiment [1] was below 100 nM. Also, the 50% effective concentration (EC50) in the experiment with A549 cells was in the range of 100 to 500 nM.

For `O=C(NC1COC1)c1nnc(CCCCc2cc3cc(Cc4ccccc4)[nH]c3nn2)s1` [Example 72, 5-(4-{6-benzyl-7H-pyrrolo[2,3-c]pyridazin-3-yl}butyl)-N-(oxetan-3-yl)-1,3,4-thiadiazole-2-carboxamide], the IC50 in experiment [1] is 100 to 500 nM. This compound also yielded an EC50 in the experiment with A549 cells above 5000 nM.

As for `CC(C)(O)c1ccc(CNC(=O)c2cn(CCCCc3cc4c(-c5ccc(F)cc5F)c(C5CC5)[nH]c4nn3)nn2)cn1` [Example 161, 1-{4-[6-cyclopropyl-5-(2,4-difluorophenyl)-7H-pyrrolo[2,3-c]pyridazin-3-yl]butyl}-N-{[6-(2-hydroxypropan-2-yl)pyridin-3-yl]methyl}-1H-1,2,3-triazole-4-carboxamide], the IC50 in experiment [1] is below 100 nM. Besides, the EC50 in the experiment with A549 cells is 100 to 500 nM.

For the compound `O=C(NCC(F)(F)F)c1nnc(CCCCc2cc3cc(Cc4ccccc4)[nH]c3nn2)s1` [Example 81, 5-(4-{6-benzyl-7H-pyrrolo[2,3-c]pyridazin-3-yl}butyl)-N-(2,2,2-trifluoroethyl)-1,3,4-thiadiazole-2-carboxamide], the half-inhibitory concentration (IC50) in experiment [1] is 100 to 500 nM. Further, the EC50 in the experiment on A549 cells was above 5000 nM.

Turning to `Cc1cccc(CNC(=O)c2cn(CCCCc3cc4cc(C5CC5)[nH]c4nn3)nn2)n1` [Example 55, 1-(4-{6-cyclopropyl-7H-pyrrolo[2,3-c]pyridazin-3-yl}butyl)-N-[(6-methylpyridin-2-yl)methyl]-1H-1,2,3-triazole-4-carboxamide], the IC50 in experiment [1] fell in the range of 100 to 500 nM. In the experiment with A549 cells, this compound showed an EC50 of 500 to 5000 nM.

Take `CC(C)(O)c1ccc(CNC(=O)c2cn(CCCCc3cc4c(-c5ccoc5)c(C5CC5)[nH]c4nn3)nn2)cn1` [Example 171, 1-{4-[6-cyclopropyl-5-(furan-3-yl)-7H-pyrrolo[2,3-c]pyridazin-3-yl]butyl}-N-{[6-(2-hydroxypropan-2-yl)pyridin-3-yl]methyl}-1H-1,2,3-triazole-4-carboxamide]: the IC50 in experiment [1] was below 100 nM. In the experiment with A549 cells, this compound had an EC50 below 100 nM.

For the compound `O=C(NCc1ccc(C(F)(F)F)cn1)c1cn(CCCCc2cc3c(-c4ccc(F)cc4F)c(C4CC4)[nH]c3nn2)nn1` [Example 218, 1-{4-[6-cyclopropyl-5-(2,4-difluorophenyl)-7H-pyrrolo[2,3-c]pyridazin-3-yl]butyl}-N-{[5-(trifluoromethyl)pyridin-2-yl]methyl}-1H-1,2,3-triazole-4-carboxamide], the half-inhibitory concentration (IC50) in experiment [1] is below 100 nM. This compound came in with an EC50 with A549 cells of 100 to 500 nM.

Take `O=C(NCc1cc(C2CC2)ccn1)c1cn(CC(F)CCc2cc3cc(-c4ccccc4F)[nH]c3nn2)nn1` (centres unmarked) [Example 244, N-[(4-cyclopropylpyridin-2-yl)methyl]-1-{2-fluoro-4-[6-(2-fluorophenyl)-7H-pyrrolo[2,3-c]pyridazin-3-yl]butyl}-1H-1,2,3-triazole-4-carboxamide]: in experiment [1], the IC50 was below 100 nM. Also, in the experiment with A549 cells, the EC50 was below 100 nM.

For `O=C(NCc1cccc(OC(F)(F)F)c1)c1cn(CCCCc2cc3cc[nH]c3nn2)nn1` [Example 27, 1-(4-{7H-pyrrolo[2,3-c]pyridazin-3-yl}butyl)-N-{[3-(trifluoromethoxy)phenyl]methyl}-1H-1,2,3-triazole-4-carboxamide], in experiment [1], the IC50 was 100 to 500 nM. The EC50 in the experiment with A549 cells is 500 to 5000 nM.

Take `O=C(NCc1cccnc1)c1nnc(CCCCc2cc3cc(Cc4ccccc4)[nH]c3nn2)s1` [Example 76, 5-(4-{6-benzyl-7H-pyrrolo[2,3-c]pyridazin-3-yl}butyl)-N-(pyridin-3-ylmethyl)-1,3,4-thiadiazole-2-carboxamide]: in experiment [1], the IC50 was below 100 nM. Moreover, the EC50 in the experiment with A549 cells lay in the range of 100 to 500 nM.

For `CCOC(=O)c1cccc(CNC(=O)c2cn(CCCCc3cc4cc(C5CC5)[nH]c4nn3)nn2)n1` [Example 88, ethyl 6-({[1-(4-{6-cyclopropyl-7H-pyrrolo[2,3-c]pyridazin-3-yl}butyl)-1H-1,2,3-triazol-4-yl]formamido}methyl)pyridine-2-carboxylate], the IC50 in experiment [1] is below 100 nM. Further, the EC50 in the experiment on A549 cells was in the range of 500 to 5000 nM.

With `N#CCC(=O)N1CC(c2cc3cc(CCCCn4cc(C(=O)NCc5cc(OC(F)(F)F)ccc5F)nn4)nnc3[nH]2)C1` [Example 140, 1-(4-{6-[1-(2-cyanoacetyl)azetidin-3-yl]-7H-pyrrolo[2,3-c]pyridazin-3-yl}butyl)-N-{[2-fluoro-5-(trifluoromethoxy)phenyl]methyl}-1H-1,2,3-triazole-4-carboxamide], the IC50 in experiment [1] was below 100 nM. Moreover, the EC50 in the experiment on A549 cells was in the range of 500 to 5000 nM.

As to `COc1cc(CNC(=O)c2cn(CCCCc3cc4cc(C5CC5)[nH]c4nn3)nn2)ccn1` [Example 44, 1-(4-{6-cyclopropyl-7H-pyrrolo[2,3-c]pyridazin-3-yl}butyl)-N-[(2-methoxypyridin-4-yl)methyl]-1H-1,2,3-triazole-4-carboxamide], the IC50 in experiment [1] lay in the range of 100 to 500 nM. Besides, the EC50 in the experiment on A549 cells was 500 to 5000 nM.

With `Cc1ccc(CNC(=O)c2cn(CCCCc3cc4c(C#N)c(C5CC5)[nH]c4nn3)nn2)cn1` [Example 112, 1-(4-{5-cyano-6-cyclopropyl-7H-pyrrolo[2,3-c]pyridazin-3-yl}butyl)-N-[(6-methylpyridin-3-yl)methyl]-1H-1,2,3-triazole-4-carboxamide], the IC50 in experiment [1] is below 100 nM. In the experiment with A549 cells, the concentration giving a half-maximal response (EC50) lay in the range of 500 to 5000 nM.

On to `O=C(NCc1ccccc1)c1cn(CCCCc2cc3c(I)c[nH]c3nn2)nn1` [Example 15, N-benzyl-1-(4-(5-iodo-7H-pyrrolo[2,3-c]pyridazin-3-yl)butyl)-1H-1,2,3-triazole-4-carboxamide], for which, in experiment [1], the IC50 lay within 100 to 500 nM. For the same compound, the concentration for a half-maximal effect (EC50) in the experiment on A549 cells lay in the range of 500 to 5000 nM.

Take `O=C(NCc1cc(OC(F)(F)F)ccc1F)c1cn(CCCCc2cc3cc(C4CN(C(=O)C5COC5)C4)[nH]c3nn2)nn1` [Example 235, N-{[2-fluoro-5-(trifluoromethoxy)phenyl]methyl}-1-(4-{6-[1-(oxetane-3-carbonyl)azetidin-3-yl]-7H-pyrrolo[2,3-c]pyridazin-3-yl}butyl)-1H-1,2,3-triazole-4-carboxamide]: the IC50 in experiment [1] was below 100 nM. In addition, the EC50 in the experiment on A549 cells fell in the range of 500 to 5000 nM.

The record behind these values is US20160002248A1, “GLS1 INHIBITORS FOR TREATING DISEASE” (Board of Regents, The University of Texas System, priority 2014, published 2016).
